Key:
[1] = biological target: T1, serotonine transporter (SERT) receptor (Homo sapiens, UniProt P31645); test: Binding assay SERT (h), [3H]imipramine, CHO cells; conditions: read-out: SERT [%]
T1 construct: expressed in transfected cells; host or cells: CHO cells
How it was run: (§1)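 Compounds tested at a single 1×10^−6 M concentration against the listed radioligands; bound label counted by scintillation, with non-specific binding defined by excess unlabelled ligand and subtracted from total.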

adrenergic α1 receptor = test: Binding assay α1 (non-selective), [3H]prazosin, rat cerebral cortex; conditions: percent inhibition of control specific binding; compounds tested at 1×10^−6 M
How it was run: as §1

dopaminergic D3 receptor = dopaminergic D3 receptor (Homo sapiens, UniProt P35462); test: Binding assay D3 (h), [3H]methyl-spiperone, CHO cells; parameters: expressed in transfected cells; host or cells: CHO cells; conditions: read-out: D3 [%]
Chain of dopaminergic D3 receptor (P35462 whole entry): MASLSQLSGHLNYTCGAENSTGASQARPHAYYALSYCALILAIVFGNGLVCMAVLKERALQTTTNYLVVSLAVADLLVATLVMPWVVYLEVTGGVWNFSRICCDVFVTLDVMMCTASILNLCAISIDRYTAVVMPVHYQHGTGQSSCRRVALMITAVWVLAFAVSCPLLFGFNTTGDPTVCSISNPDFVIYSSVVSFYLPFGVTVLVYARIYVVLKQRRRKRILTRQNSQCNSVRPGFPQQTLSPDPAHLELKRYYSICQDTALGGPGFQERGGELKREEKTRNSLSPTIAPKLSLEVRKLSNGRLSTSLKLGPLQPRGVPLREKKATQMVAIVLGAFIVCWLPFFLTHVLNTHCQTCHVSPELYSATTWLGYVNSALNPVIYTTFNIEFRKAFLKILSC
How it was run: as §1

[2] = biological target: serotoninergic 5-HT6 receptor (Homo sapiens, UniProt P50406); test: Binding assay 5-HT6 (h), [3H]LSD, CHO cells; parameters: expressed in transfected cells; host or cells: CHO cells; conditions: read-out: 5-HT6
Chain of serotoninergic 5-HT6 receptor (P50406 whole entry): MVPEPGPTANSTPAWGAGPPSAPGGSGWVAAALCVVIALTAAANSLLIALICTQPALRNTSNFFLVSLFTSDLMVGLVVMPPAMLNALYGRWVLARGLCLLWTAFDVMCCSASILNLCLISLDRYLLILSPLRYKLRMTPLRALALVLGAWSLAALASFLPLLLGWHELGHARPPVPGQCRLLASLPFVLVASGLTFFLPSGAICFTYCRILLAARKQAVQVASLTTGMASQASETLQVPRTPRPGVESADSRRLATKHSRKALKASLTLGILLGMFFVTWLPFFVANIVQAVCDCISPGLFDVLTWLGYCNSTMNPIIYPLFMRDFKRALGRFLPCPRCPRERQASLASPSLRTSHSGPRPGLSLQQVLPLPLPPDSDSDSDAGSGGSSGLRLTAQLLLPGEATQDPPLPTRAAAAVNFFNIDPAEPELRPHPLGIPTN
How it was run: as §1

[3] = biological target: serotoninergic 5-HT7 receptor (Homo sapiens, UniProt P34969); test: Binding assay 5-HT7 (h), [3H]LSD, CHO cells; parameters: expressed in transfected cells; host or cells: CHO cells; conditions: read-out: 5-HT7
Chain of serotoninergic 5-HT7 receptor (P34969 whole entry): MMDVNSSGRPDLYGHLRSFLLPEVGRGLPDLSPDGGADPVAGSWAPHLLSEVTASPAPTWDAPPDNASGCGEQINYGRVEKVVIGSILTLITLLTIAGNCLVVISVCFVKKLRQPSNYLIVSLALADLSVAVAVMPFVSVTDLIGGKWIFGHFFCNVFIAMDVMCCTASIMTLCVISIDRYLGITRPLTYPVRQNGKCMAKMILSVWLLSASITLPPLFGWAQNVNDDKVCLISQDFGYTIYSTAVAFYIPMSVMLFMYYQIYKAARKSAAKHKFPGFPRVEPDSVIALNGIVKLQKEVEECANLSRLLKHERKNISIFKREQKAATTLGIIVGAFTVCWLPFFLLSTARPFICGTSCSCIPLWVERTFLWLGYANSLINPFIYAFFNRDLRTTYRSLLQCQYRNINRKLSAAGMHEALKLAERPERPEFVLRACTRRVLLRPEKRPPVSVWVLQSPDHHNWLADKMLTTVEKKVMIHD
How it was run: as §1

dopaminergic D2 receptor = dopaminergic D2 receptor (Homo sapiens, UniProt P14416); test: Binding assay D2S (h), [3H]methyl-spiperone, HEK-293 cells; parameters: expressed in transfected cells; host or cells: HEK-293 cells; conditions: read-out: D2 [%]
Chain of dopaminergic D2 receptor (P14416 1-414 isoform P14416-2): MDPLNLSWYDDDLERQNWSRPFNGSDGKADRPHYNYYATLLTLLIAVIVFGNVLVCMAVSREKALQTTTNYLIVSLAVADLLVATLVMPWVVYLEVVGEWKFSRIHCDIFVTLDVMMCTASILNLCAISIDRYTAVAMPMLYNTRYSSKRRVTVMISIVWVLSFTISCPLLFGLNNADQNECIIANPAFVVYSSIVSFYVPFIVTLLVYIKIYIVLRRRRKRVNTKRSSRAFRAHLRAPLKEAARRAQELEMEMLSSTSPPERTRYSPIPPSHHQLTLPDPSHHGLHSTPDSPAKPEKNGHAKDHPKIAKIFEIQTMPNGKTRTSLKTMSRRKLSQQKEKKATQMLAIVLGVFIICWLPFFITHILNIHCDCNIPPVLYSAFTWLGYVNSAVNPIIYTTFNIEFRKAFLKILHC
How it was run: as §1

[4] = biological target: T2, serotoninergic 5-HT1A receptor (Homo sapiens, UniProt P08908); test: Binding assay 5-HT1A (h), [3H]8-OH-DPAT, HEK-293 cells; parameters: expressed in transfected cells; host or cells: HEK-293 cells; conditions: read-out: 5-HT1A
T2 sequence (P08908 1-422): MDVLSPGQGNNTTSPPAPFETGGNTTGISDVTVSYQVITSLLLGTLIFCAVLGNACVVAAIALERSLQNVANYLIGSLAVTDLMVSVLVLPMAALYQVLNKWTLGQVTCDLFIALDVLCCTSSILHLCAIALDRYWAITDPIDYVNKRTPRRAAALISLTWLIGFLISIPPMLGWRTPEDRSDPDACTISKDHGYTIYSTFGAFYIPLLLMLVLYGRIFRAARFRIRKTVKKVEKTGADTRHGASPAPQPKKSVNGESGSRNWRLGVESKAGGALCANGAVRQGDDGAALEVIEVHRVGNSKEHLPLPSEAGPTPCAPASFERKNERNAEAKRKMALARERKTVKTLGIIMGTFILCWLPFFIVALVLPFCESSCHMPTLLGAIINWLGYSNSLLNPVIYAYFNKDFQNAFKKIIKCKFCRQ
How it was run: as §1

[5] = biological target: serotoninergic 5-HT2A receptor (Homo sapiens, UniProt P28223); test: Binding assay 5-HT2A (h), [3H]ketanserin, HEK-293 cells; parameters: expressed in transfected cells; host or cells: HEK-293 cells; conditions: read-out: 5-HT2A
Chain of serotoninergic 5-HT2A receptor (P28223 whole entry): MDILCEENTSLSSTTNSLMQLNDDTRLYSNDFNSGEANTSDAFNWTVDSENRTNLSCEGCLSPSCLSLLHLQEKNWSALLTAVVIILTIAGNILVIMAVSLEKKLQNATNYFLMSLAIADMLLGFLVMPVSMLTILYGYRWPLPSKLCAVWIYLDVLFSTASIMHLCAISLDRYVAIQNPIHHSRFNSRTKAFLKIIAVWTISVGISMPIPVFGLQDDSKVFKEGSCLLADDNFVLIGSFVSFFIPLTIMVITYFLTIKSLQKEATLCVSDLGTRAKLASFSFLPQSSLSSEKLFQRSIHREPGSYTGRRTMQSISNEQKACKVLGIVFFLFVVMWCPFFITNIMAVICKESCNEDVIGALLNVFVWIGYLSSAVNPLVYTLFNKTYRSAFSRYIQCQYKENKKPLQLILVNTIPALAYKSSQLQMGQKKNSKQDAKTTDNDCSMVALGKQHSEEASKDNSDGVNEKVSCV
How it was run: as §1

T1 sequence (P31645 whole entry): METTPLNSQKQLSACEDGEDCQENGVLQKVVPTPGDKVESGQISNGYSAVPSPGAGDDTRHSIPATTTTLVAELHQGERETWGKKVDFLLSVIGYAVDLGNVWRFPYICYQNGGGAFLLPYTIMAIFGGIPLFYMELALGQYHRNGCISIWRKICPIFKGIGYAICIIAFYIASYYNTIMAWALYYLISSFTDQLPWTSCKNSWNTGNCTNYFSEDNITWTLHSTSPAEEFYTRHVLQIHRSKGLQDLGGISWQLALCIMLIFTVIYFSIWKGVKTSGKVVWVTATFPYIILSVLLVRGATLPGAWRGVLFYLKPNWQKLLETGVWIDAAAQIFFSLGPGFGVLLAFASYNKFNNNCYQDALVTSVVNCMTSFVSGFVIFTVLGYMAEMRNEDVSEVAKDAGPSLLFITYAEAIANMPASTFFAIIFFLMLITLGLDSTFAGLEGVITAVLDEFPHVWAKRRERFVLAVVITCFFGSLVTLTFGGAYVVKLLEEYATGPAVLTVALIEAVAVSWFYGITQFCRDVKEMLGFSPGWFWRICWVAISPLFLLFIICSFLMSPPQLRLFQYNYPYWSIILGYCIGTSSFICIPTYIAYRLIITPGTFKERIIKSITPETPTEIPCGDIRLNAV

| SMILES | inhibition at 1 µM [1] | α1 [%] (adrenergic α1 receptor) | inhibition at 1 µM (dopaminergic D3 receptor) | inhibition at 1 µM [2] | inhibition at 1 µM [3] | inhibition at 1 µM (dopaminergic D2 receptor) | inhibition at 1 µM [4] | inhibition at 1 µM [5] |
| --- | --- | --- | --- | --- | --- | --- | --- | --- |
| O=S(=O)(NCCCN1CCC(c2noc3cc(F)ccc23)CC1)c1csc2ccccc12 [Compound 346, N-[3-[4-(6-Fluoro-1,2-benzoxazol-3-yl)piperidin-1-yl]propyl]benzothiophene-3-sulphonamide] | 17% | 103% | 93% | 95% | 87% | 100% | 51% | 97% |
| O=S(=O)(NCCCN1CCC(c2noc3cc(F)ccc23)CC1)c1cc2ccccc2o1 [Compound 349, N-[3-[4-(6-Fluoro-1,2-benzoxazol-3-yl)piperidin-1-yl]propyl]benzofuran-2-sulphonamide] | 0% | 98% | 100% | 87% | 91% | 93% | 49% | 108% |
| O=S(=O)(NCCCN1CCC(c2noc3cc(F)ccc23)CC1)c1ccc2c(c1)CCO2 [Compound 350, N-[3-[4-(6-Fluoro-1,2-benzoxazol-3-yl)piperidin-1-yl]propyl]-2,3-dihydrobenzofuran-5-sulphonamide] | -5% | 102% | 95% | 96% | 87% | 102% | 57% | 95% |
| O=S(=O)(NCCCN1CCC(c2noc3cc(F)ccc23)CC1)c1cccc2scnc12 [Compound 351, N-[3-[4-(6-Fluoro-1,2-benzoxazol-3-yl)piperidin-1-yl]propyl]-1,3-benzothiazole-4-sulphonamide] | 31% | 97% | 103% | 89% | 94% | 101% | 71% | 103% |
| O=c1[nH]c2ccc(S(=O)(=O)NCCCN3CCC(c4noc5cc(F)ccc45)CC3)cc2o1 [Compound 353, N-[3-[4-(6-Fluoro-1,2-benzoxazol-3-yl)piperidin-1-yl]propyl]-2-oxo-3H-1,3-benzoxazole-6-sulphonamide] | -1% | 103% | 97% | 58% | 83% | 91% | 48% | 101% |
| O=S(=O)(NCCCN1CCC(c2noc3cc(F)ccc23)CC1)c1ccc2c(c1)OCO2 [Compound 354, N-[3-[4-(6-Fluoro-1,2-benzoxazol-3-yl)piperidin-1-yl]propyl]-1,3-benzodioxole-5-sulphonamide] | 6% | 103% | 88% | 86% | 96% | 83% | 59% | 86% |
| O=S(=O)(NCCCN1CCC(c2noc3cc(F)ccc23)CC1)c1ccc2c(c1)OCCO2 [Compound 355, N-[3-[4-(6-Fluoro-1,2-benzoxazol-3-yl)piperidin-1-yl]propyl]-2,3-dihydro-1,4-benzodioxine-6-sulphonamide] | 45% | 105% | 97% | 75% | 84% | 99% | 60% | 103% |
| O=S(=O)(NCCCCN1CCN(c2cccc3[nH]ccc23)CC1)c1cccc(C(F)(F)F)c1 [Compound 361, N-[4-[4-(1H-Indol-4-yl)piperazin-1-yl]butyl]-3-(trifluoromethyl)benzenesulphonamide] | 6% | 98% | 98% | 70% | 86% | 99% | 95% | 49% |
| N#Cc1cccc(S(=O)(=O)NCCCCN2CCN(c3cccc4[nH]ccc34)CC2)c1 [Compound 362, 3-Cyano-N-[4-[4-(1H-indol-4-yl)piperazin-1-yl]butyl]benzenesulphonamide] | 37% | 96% | 102% | 69% | 88% | 101% | 91% | 41% |
| Cc1c(S(=O)(=O)NCCCCN2CCN(c3cccc4[nH]ccc34)CC2)sc2ccc(F)cc12 [Compound 364, 5-Fluoro-N-[4-[4-(1H-indol-4-yl)piperazin-1-yl]butyl]-3-methylbenzothiophene-2-sulphonamide] | 35% | 87% | 100% | 80% | 91% | 100% | 92% | 89% |
| Cc1[nH]c2ccc(Cl)cc2c1C1=CCN(CCCCNS(=O)(=O)c2cccc3ccccc23)CC1 [Compound 366, N-[4-[4-(5-Chloro-2-methyl-1H-indol-3-yl)-3,6-dihydro-2H-pyridin-1-yl]butyl]-naphthalene-1-sulphonamide] | 8% | 8% | 81% | 98% | 53% | 54% | 34% | 49% |
| Cc1[nH]c2ccc(Cl)cc2c1C1=CCN(CCCCNS(=O)(=O)c2cccc(O)c2)CC1 [Compound 369, N-[4-[4-(5-Chloro-2-methyl-1H-indol-3-yl)-3,6-dihydro-2H-pyridin-1-yl]butyl]-3-hydroxybenzenesulphonamide] | 29% | 50% | 97% | 99% | 7% | 67% | 62% | 79% |
| O=S(=O)(NCCCCN1CCN(c2cccc3c2OCCO3)CC1)c1cccc2ccccc12 [Compound 385, N-[4-[4-(2,3-Dihydro-1,4-benzodioxin-5-yl)piperazin-1-yl]butyl]naphthalene-1-sulphonamide] | 6% | 96% | 89% | 10% | 99% | 75% | 103% | 77% |
| O=S(=O)(NCCCCN1CCN(c2cccc3c2OCCO3)CC1)c1ccc2ccccc2c1 [Compound 386, N-[4-[4-(2,3-Dihydro-1,4-benzodioxin-5-yl)piperazin-1-yl]butyl]naphthalene-2-sulphonamide] | -5% | 96% | 88% | 1% | 82% | 70% | 96% | 65% |
| O=S(=O)(NCCCCN1CCN(c2cccc3c2OCCO3)CC1)c1cccc(F)c1 [Compound 388, N-[4-[4-(2,3-Dihydro-1,4-benzodioxin-5-yl)piperazin-1-yl]butyl]-3-fluorobenzenesulphonamide] | -28% | 91% | 83% | -20% | 90% | 50% | 92% | 19% |
| O=S(=O)(NCCCCN1CCN(c2cccc3c2OCCO3)CC1)c1ccc(F)c(F)c1 [Compound 389, N-[4-[4-(2,3-Dihydro-1,4-benzodioxin-5-yl)piperazin-1-yl]butyl]-3,4-difluorobenzenesulphonamide] | 44% | 93% | 85% | 19% | 93% | 50% | 118% | 56% |
| O=S(=O)(NCCCCN1CCN(c2cccc3c2OCCO3)CC1)c1cccc(Cl)c1 [Compound 390, 3-Chloro-N-[4-[4-(2,3-dihydro-1,4-benzodioxin-5-yl)piperazin-1-yl]butyl]benzenesulphonamide] | -15% | 73% | 81% | 26% | 66% | 61% | 101% | 59% |

Source: patent US8822517B2, “Arylosulfonamides for the treatment of CNS diseases” (Adamed SP. Z O.O., priority 2010, dated 2014)
